The record followed here is patent US20230159467A1, “NOVEL COMPOUNDS USEFUL IN THE TREATMENT AND/OR PREVENTION OF A DISEASE, DISORDER OR CONDITION ASSOCIATED WITH ANGIOTENSIN II” (Vicore Pharma AB, priority 2020, published 2023).

SMILES strings stand for the structures. A value given as a limit tells only on which side of the number the result lay.

One data set concerns the target T1, human AT1R (Homo sapiens, UniProt P30556).
T1 construct: host or cells: HEK-293
T1 sequence (P30556 1-359): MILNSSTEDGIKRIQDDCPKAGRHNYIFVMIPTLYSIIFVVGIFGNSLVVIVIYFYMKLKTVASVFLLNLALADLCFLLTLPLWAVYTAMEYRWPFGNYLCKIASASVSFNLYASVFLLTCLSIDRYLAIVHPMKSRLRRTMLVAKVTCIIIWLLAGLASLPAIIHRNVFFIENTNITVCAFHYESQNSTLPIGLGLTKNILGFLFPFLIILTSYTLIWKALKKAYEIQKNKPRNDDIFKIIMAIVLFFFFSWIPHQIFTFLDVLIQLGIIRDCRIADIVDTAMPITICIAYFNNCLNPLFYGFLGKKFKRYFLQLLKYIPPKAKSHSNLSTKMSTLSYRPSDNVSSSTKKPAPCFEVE
The data set is classed as binding. The settings on record: HEK-293 cell membranes.

A further data set addresses T2, human AT2R (Homo sapiens, UniProt P50052).
T2 construct: host or cells: HEK-293
T2 sequence (P50052 1-363): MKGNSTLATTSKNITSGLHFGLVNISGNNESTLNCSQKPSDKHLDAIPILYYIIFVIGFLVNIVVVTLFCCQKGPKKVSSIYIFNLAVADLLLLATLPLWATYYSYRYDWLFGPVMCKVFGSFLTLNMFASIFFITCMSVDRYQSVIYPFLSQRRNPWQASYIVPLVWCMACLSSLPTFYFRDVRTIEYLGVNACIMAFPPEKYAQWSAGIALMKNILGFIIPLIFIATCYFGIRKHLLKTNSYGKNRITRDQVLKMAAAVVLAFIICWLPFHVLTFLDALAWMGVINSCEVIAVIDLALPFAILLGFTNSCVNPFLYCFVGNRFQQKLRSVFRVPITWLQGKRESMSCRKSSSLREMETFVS
In kind it is binding. The note with it: HEK-293 cell membranes.

A short description of data set [1]: Stability in human liver microsomes. The data set is classed as in vitro ADME. The settings on record: half-life. How it is done: Stability in liver microsomes. Human, mouse and rat liver microsomes were used to assess the metabolic stability for the compounds. Metabolic stability was determined in 0.5 mg/mL human, mouse or rat liver microsomes at a compound concentration of 1 μM in 100 mM potassium phosphate buffer (pH 7.4) in a total incubation volume of 500 μL by Eurofins. The assay matrix was: human liver microsomes: mixed gender and pool of 50, rat liver microsomes: male, Sprague-Dawley, pool of 100 or more and mouse liver microsomes: male,CD-1, pool of 250 or more. Final microsomal protein concentration: 0.1mg/mL. The test concentration was 0.1 μM with 0.01% DMSO, 0.25% acetonitrile and 0.25% methanol by default. […] The reaction was initiated by adding NADPH-generating system and was incubated for 0, 15, 30, 45, and 60 min. The reaction was stopped by transferring the incubation mixture to acetonitrile/methanol. Samples were then mixed and centrifuged. Four reference compounds were tested in each assay. Propranolol and imipramine are relatively stable, whereas verapamil and terfenadine are readily metabolized inhuman liver microsomes. Samples were analyzed by HPLC-MS/MS using selected reaction monitoring. The HPLC system consisted of a binary LC pump with autosampler, a C-18 column, and a gradient. Peak areas corresponding to the test compound were recorded. The compound remaining was calculated by comparing the peak area at each time point to time zero. The half-life was calculated from the slope of the initial linear range of the logarithmic curve of compound remaining (%) vs. time, assuming first order kinetics. In addition, the intrinsic clearance (Clint) was calculated.^19,20
A general note: Liver microsomes are a subcellular fraction often used to study metabolism.

For a further data set, the target named is T3, CYP2B6 (Homo sapiens, UniProt P20813).
T3 sequence (P20813 1-491): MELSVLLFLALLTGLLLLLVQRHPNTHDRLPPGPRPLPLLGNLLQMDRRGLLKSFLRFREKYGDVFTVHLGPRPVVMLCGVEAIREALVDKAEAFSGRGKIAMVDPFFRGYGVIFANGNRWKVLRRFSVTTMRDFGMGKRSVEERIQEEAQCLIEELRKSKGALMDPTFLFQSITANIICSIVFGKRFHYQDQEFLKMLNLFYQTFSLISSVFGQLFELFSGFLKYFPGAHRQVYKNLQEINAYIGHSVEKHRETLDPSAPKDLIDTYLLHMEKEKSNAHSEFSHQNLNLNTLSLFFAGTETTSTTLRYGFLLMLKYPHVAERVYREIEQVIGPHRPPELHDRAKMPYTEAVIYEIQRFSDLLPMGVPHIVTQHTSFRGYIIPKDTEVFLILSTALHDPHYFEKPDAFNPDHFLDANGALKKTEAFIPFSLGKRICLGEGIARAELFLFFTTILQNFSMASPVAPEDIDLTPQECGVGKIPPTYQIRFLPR
Put plainly: CYP450 inhibition assay, pooled human liver microsomes, bupropion substrate. The note with it: both, human, pooled human liver microsomes, pH 7.4, probe bupropion.

Data set [2] concerns CYP3A. Nature of the data set: CYP450 inhibition assay, pooled human liver microsomes, midazolam substrate. The note with it: both, human, pooled human liver microsomes, pH 7.4, probe midazolam.
In the next data set the target is T4, CYP1A (Homo sapiens, UniProt P05177).
T4 sequence (P05177 1-516): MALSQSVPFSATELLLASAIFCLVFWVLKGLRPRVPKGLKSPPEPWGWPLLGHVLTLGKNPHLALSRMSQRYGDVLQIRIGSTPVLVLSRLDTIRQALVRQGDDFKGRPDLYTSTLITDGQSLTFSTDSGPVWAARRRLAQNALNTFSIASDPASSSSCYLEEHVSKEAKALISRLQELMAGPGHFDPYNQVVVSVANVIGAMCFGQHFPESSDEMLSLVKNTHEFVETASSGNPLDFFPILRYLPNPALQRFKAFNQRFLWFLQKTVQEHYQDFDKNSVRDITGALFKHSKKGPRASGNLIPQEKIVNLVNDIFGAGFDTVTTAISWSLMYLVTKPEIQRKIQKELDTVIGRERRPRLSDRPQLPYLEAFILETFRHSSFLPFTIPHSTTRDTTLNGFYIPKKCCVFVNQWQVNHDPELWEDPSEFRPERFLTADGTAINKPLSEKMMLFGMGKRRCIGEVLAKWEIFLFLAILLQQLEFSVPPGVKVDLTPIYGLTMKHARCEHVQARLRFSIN
Nature of the data set: CYP450 inhibition assay, pooled human liver microsomes, phenacetin substrate. The settings on record: both, human, pooled human liver microsomes, pH 7.4, probe phenacetin.

For the next data set, the target named is CYP2C9 (Homo sapiens, UniProt P11712). Put plainly: CYP450 inhibition assay, pooled human liver microsomes, diclofenac substrate. The settings on record: both, human, pooled human liver microsomes, pH 7.4, probe diclofenac.
Chain of CYP2C9 (P11712 whole entry): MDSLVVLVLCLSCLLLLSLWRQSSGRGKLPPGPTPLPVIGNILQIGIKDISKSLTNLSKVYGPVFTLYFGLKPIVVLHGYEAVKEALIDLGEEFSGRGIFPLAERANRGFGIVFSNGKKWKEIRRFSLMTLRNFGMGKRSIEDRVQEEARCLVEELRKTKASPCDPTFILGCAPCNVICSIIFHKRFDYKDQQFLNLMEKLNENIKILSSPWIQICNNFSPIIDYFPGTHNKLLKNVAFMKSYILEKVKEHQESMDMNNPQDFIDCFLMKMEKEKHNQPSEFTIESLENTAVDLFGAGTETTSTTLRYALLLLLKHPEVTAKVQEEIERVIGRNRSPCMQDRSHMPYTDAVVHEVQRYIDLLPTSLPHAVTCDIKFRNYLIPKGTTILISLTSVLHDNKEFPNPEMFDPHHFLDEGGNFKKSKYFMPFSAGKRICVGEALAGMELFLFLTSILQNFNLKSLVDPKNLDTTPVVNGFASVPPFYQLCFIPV
For the next data set, the target named is CYP2C19 (Homo sapiens, UniProt P33261). Nature of the data set: CYP450 inhibition assay, pooled human liver microsomes, omeprazole substrate. The settings on record: both, human, pooled human liver microsomes, pH 7.4, probe omeprazole.
Chain of CYP2C19 (P33261 whole entry): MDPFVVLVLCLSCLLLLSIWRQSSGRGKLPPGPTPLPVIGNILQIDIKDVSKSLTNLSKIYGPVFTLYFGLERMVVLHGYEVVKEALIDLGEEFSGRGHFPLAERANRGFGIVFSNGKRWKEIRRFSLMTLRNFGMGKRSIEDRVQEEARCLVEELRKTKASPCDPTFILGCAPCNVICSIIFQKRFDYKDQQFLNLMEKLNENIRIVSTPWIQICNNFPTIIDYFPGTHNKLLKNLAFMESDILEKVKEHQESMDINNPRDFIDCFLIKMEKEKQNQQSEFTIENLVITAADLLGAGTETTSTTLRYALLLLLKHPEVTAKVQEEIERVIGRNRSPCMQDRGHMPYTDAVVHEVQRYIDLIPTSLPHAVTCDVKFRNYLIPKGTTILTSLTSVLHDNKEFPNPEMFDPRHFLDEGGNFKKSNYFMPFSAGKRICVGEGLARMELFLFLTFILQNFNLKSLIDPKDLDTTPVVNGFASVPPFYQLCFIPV
In a further data set the target is T5, CYP2C8 (Homo sapiens, UniProt P10632).
T5 sequence (P10632 1-490): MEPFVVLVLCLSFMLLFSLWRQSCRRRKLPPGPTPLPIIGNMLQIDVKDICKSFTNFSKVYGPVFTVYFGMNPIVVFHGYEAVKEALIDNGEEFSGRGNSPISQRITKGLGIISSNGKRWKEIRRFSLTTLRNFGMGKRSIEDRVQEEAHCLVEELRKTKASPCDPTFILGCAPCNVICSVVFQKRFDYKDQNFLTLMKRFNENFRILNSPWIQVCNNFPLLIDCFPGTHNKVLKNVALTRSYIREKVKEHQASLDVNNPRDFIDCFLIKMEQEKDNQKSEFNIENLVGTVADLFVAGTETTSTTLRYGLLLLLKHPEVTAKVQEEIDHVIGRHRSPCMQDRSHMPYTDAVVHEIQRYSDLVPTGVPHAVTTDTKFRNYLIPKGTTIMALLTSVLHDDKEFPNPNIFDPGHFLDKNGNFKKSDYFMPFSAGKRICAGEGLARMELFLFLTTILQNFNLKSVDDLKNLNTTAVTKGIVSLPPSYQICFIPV
Put plainly: CYP450 inhibition assay, pooled human liver microsomes, amodiaquine substrate. The settings on record: both, human, pooled human liver microsomes, pH 7.4, probe amodiaquine.

Data set [3] concerns CYP3A. Nature of the data set: CYP450 inhibition assay, pooled human liver microsomes, testosterone substrate. The note with it: both, human, pooled human liver microsomes, pH 7.4, probe testosterone, CYP 450 Inhibition CYP3A testosterone, at 10 μM.
The target in the next data set is CYP2D6 (Homo sapiens, UniProt P10635). Put plainly: CYP450 inhibition assay, pooled human liver microsomes, dextromethorphan substrate. The note with it: both, human, pooled human liver microsomes, pH 7.4, probe dextromethorphan.
Chain of CYP2D6 (P10635 whole entry): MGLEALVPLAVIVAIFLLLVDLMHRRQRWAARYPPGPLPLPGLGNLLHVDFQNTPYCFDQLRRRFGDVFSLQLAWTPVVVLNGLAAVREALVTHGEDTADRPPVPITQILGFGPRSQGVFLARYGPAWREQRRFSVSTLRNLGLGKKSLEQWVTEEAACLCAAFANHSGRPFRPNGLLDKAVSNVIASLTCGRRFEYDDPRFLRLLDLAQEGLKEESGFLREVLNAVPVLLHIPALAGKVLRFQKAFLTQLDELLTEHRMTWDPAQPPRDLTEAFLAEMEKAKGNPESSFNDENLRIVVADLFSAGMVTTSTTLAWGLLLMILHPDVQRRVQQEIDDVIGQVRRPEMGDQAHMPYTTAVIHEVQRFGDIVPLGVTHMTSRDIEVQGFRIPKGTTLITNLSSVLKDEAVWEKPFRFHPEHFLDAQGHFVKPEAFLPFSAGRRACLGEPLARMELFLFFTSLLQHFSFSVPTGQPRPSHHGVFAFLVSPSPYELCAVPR

What is called Ki is a dissociation constant, usually derived from enzyme kinetics or from competition with a known ligand. High values mean weaker binding, low ones tighter binding. On to `CCCCOC(=O)NS(=O)(=O)c1sc(CC(C)C)nc1-c1ccc(Cn2ccnc2C(C)C)cc1` [Example 18, Butyl ((2-isobutyl-4-(4-((2-isopropyl-1H-imidazol-1-yl)methyl)phenyl)thiazol-5-yl)sulfonyl)carbamate], for which the Ki on human AT1R worked out at 1000 nM; at human AT2R, 5.8 nM. Also, the “Stability in liver microsomes HLM” value in [1] is given as over 60 min.

Regarding `CCCCOC(=O)NS(=O)(=O)c1sc(CC(C)C)nc1-c1ccc(Cn2ccnc2-c2nccs2)cc1` [Example 16, Butyl ((2-isobutyl-4-(4-((2-(thiazol-2-yl)-1H-imidazol-1-yl)methyl)phenyl)thiazol-5-yl)su Ifonyl)carbamate], the values for the inhibition constant Ki on human AT1R and at human AT2R were 1000 nM and 41 nM, respectively. The “Stability in liver microsomes HLM” value in data set [1] is on record as over 60 min.

One may read the inhibition as the relative decrease from the control value, in per cent. For the compound `CCCCOC(=O)NS(=O)(=O)c1ccc(CC(C)C)cc1-c1ccc(Cn2ccnc2C(C)(C)F)cc1` [Example 32, Butyl ((4′-((2-(2-fluoropropan-2-yl)-1H-imidazol-1-yl)methyl)-5-isobutyl-[1,1′-biphenyl]-2-yl)sulfonyl)carbamate], the inhibition at 10 min, 10 µM on CYP2B6 is 29.8%; in the data set on CYP3A [2], -11.7%; against CYP1A it was -3.04%; at CYP2C9, 43.7%; on CYP2C19, 31%; against CYP2C8, 66.5%. The inhibition at 10 min, 10 µM in the data set with CYP3A [3] was 8.43%; against CYP2D6, 17.1%.

As to `CCCc1ccc(S(=O)(=O)[N-]C(=O)OC)c(-c2ccc(Cn3ccnc3C(C)(C)O)cc2)c1.[K+]` [Example 30B, Potassium (methoxycarbonyl) ((4′-((2-(2-hydroxypropan-2-yl)-1H-imidazol-1-yl)methyl)-5-propyl-[1,1′-biphenyl]-2-yl)sulfonyl)amide], the inhibitory constant (Ki) at human AT1R is 1000 nM; at human AT2R, 4.6 nM. In addition, the “Stability in liver microsomes HLM” value in [1] is reported as over 60 min.

Consider `COC(=O)NS(=O)(=O)c1ccc(CC(C)C)cc1-c1ccc(Cn2ccnc2C(C)(C)F)cc1` [Example 34, Methyl ((4′-((2-(2-fluoropropan-2-yl)-1H-imidazol-1-yl)methyl)-5-isobutyl-[1,1′-biphenyl]-2-yl)sulfonyl)carbamate], for which the Ki on human AT1R was 15000 nM; on human AT2R, 2.3 nM. Moreover, the inhibition at 10 min, 10 µM at CYP2B6 is 6.9%; with CYP3A [2] it was 9.98%; at CYP1A, -5.97%; against CYP2C9, 42.2%; against CYP2C19, 43.3%; against CYP2C8 it was 70.3%. In addition, the inhibition at 10 min, 10 µM in the data set on CYP3A [3] was 18.1%; against CYP2D6 it was 16.2%.

For `CCCCOC(=O)NS(=O)(=O)c1sc(CC(C)C)nc1-c1ccc(Cn2ccnc2C(C)(C)O)cc1` [Example 17A, Butyl ((4-(4-((2-(2-hydroxypropan-2-yl)-1H-imidazol-1-yl)methyl)phenyl)-2-isobutylthiazol-5-yl)sulfonyl)carbamate], the Ki on human AT1R came to 1000 nM; on human AT2R, 12 nM. In addition, the “Stability in liver microsomes HLM” value in data set [1] was over 60 min.

With `CCCCOC(=O)NS(=O)(=O)c1sc(CCC)nc1-c1ccc(Cn2ccnc2C(C)C)cc1` [Example 15, Butyl ((4-(4-((2-isopropyl-1H-imidazol-1-yl)methyl)phenyl)-2-propylthiazol-5-yl)sulfonyl)carbamate], the Ki on human AT2R was found to be 39 nM. In addition, the “Stability in liver microsomes HLM” value in data set [1] is over 60 min.
